Measurements: patent publication US20240174594A1, “4-ALKENYL AND 4-ALKYNYL PHENETHYLAMINE DERIVATIVES AND RELATED COMPOUNDS WITH MODIFIED DOM-LIKE ACTION” (priority 2022, published 2024)

Tests used:
humans = conditions: cited from earlier work
5-HT transporter (SERT) [1] = biological target: T1, 5-HT transporter (SERT) (Homo sapiens, UniProt P31645); test: interaction with the 5-HT transporter; conditions: data on file
5-HT2A receptor = 5-HT2A receptor (Homo sapiens, UniProt P28223); conditions: cited from earlier work
5-HT2A receptor, sequence (P28223 whole entry): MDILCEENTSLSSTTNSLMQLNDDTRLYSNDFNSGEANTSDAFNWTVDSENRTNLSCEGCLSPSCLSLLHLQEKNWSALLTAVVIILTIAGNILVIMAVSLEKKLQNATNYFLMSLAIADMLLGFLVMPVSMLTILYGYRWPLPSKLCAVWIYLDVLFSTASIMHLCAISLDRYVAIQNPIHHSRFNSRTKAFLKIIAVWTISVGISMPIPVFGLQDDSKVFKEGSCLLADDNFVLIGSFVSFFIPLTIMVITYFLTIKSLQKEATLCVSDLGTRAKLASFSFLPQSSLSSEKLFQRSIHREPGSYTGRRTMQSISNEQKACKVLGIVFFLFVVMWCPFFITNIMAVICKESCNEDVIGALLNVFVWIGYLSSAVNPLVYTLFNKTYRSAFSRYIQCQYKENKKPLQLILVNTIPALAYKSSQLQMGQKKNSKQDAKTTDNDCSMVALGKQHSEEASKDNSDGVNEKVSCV

5-HT1A receptor = biological target: T2, 5-HT1A receptor (Homo sapiens, UniProt P08908); conditions: literature and data on file; cited from earlier work
T2 sequence (P08908 1-422): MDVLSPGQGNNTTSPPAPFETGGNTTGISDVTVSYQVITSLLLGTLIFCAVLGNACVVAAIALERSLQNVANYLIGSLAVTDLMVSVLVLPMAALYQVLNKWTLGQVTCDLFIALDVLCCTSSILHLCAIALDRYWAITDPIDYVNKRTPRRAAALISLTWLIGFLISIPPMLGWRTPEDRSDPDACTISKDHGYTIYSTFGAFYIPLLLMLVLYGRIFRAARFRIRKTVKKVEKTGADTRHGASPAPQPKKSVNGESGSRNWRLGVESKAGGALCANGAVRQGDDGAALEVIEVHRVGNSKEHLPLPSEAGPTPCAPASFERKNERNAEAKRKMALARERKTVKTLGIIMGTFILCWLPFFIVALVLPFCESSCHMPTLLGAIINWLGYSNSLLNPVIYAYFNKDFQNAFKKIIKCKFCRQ

D2 receptors = D2 receptors (Homo sapiens, UniProt P14416); conditions: literature and data on file; cited from earlier work
D2 receptors, sequence (P14416 whole entry): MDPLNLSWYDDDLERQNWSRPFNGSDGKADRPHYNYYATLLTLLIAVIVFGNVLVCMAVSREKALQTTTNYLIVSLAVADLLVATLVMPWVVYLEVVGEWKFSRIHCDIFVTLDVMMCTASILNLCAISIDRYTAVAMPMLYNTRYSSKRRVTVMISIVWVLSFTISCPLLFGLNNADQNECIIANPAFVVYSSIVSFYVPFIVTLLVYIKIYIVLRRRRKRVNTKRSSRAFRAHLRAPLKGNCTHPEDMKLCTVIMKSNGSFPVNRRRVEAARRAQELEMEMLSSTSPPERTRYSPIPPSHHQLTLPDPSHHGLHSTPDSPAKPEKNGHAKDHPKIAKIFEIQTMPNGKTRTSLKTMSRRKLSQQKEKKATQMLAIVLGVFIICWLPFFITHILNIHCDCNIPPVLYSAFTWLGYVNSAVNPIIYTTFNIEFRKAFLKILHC

5-HT transporter (SERT) [2] = biological target: T1, 5-HT transporter (SERT); conditions: cited from earlier work

T1 sequence (P31645 whole entry, species assumed): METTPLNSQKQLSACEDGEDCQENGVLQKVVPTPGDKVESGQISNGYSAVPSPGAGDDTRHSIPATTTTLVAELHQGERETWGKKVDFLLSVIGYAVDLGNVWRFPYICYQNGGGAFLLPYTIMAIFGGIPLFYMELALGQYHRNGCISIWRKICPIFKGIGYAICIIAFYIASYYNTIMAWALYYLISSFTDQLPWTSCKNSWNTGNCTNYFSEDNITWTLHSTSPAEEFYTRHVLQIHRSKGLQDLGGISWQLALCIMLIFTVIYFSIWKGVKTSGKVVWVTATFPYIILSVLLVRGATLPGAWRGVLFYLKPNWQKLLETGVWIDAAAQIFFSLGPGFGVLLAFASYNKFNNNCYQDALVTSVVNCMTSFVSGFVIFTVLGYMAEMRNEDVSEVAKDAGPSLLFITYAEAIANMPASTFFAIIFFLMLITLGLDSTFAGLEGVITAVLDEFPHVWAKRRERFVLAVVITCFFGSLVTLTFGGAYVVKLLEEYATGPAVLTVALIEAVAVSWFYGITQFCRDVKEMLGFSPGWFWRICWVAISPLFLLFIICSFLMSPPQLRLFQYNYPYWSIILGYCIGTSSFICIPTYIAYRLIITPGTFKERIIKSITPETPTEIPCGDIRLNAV

Which results are given for COc1cc(CCN)c(OC)cc1C [2C-D, 2,5-dimethoxy-4-methylphenethylamine]?
duration of action / psychoactive effects (humans): 4 to 6 h; psychoactive dose in humans (full active doses / human potency) (humans): 20 to 60 mg

With C#Cc1cc(OC)c(CCN)cc1OC.Cl [2C-YN, 2,5-Dimethoxy-4-ethynylphenethylamine hydrochloride] as the compound, how does the “duration of action / psychoactive effects” value (humans) read?
The value was 2 to 3 h.

For COc1cc(CC(C)N)c(OC)cc1C (centres unmarked) [DOM, 2,5-dimethoxy-4-methylamphetamine], which “interaction with the SERT” value (5-HT transporter (SERT) [1]) is on record?
The value was “do not interact”.

What about the “duration of action / psychoactive effects” value (humans) of the same compound?
The value was 14 to 20 h.

And the “psychoactive dose in humans (full active doses / human potency)” value (humans)?
Its value is 3 to 10 mg.

What about the “psychoactive dose, off of baseline” value (humans) of the same compound?
Its value is 1 mg.

What about the “time to first subjective effects” value (humans) of the same compound?
The value was 30 min.

And the “time to full effects (onset of action)” value (humans)?
Its value is “up to 2 hours”.

What about the “5-HT2A receptor affinity” value (5-HT2A receptor) of the same compound?
The value was “high affinities”.

And the “5-HT1A receptor affinity” value (5-HT1A receptor)?
Its value is “very low affinity”.

What about the “D2 receptor affinity” value (D2 receptors) of the same compound?
The value was “no affinity”.

For CCN(CC)C(=O)[C@@H]1C=C2c3cccc4[nH]cc(c34)C[C@H]2N(C)C1 [LSD, lysergic acid diethylamide], which “duration of action / psychoactive effects” value (humans) is on record?
Its value is 8 to 12 h.

For CN(C)CCc1c[nH]c2cccc(O)c12 [Psilocin], which “action at the SERT” value (5-HT transporter (SERT) [2]) is on record?
The value was “inhibits”.

With COc1cc(CCN)cc(OC)c1OC [mescaline] as the compound, how does the “5-HT2A receptor affinity” value (5-HT2A receptor) read?
The value was “very weak”.

And the “D2 receptor affinity” value (D2 receptors)?
The value was “no affinity”.

For COc1cc(C)cc(OC)c1CC(C)N (centres unmarked) [ψ-DOM, 2,6-dimethoxy-4-methylamphetamine], which “duration of action / psychoactive effects” value (humans) is on record?
Its value is 6 to 8 h.

What about the “psychoactive dose in humans (full active doses / human potency)” value (humans) of the same compound?
Its value is 15 to 25 mg.

And the “dose relative to DOM” value (humans; higher dose than DOM)?
Its value is 3- to 5 fold.

What about the “5-HT2A binding affinity in comparison to DOM” value (5-HT2A receptor) of the same compound?
Its value is “approximately three-fold lower”.
